The source of these data is ChEMBL document CHEMBL1201862, “PubChem BioAssay data set” (2004).

Among the test systems are HL-60; HCT-116; CCRF-CEM; NCI-H460; OVCAR-5; HCT-15; KM12; A549; LOX IMVI; SF-295; KM-20L2; SK-MEL-2; UO-31; U-251; SW-620; SF-539; ACHN; HOP-92; BT-549; MDA-N.
Holding throughout (experiment): inhibition of tumour cell growth, NCI panel, 48 h

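A five-concentration, 48-hour dose response in 96-well plates underlies each endpoint, interpolated linearly between surrounding concentrations. GI50 marks 50% less growth.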 The source made the active and inactive calls. No stated cut-off is given here; in the data, active = GI50 up to about 1.1 µM and inactive = higher.

For the molecule `O=C1CCC(=O)N1Cc1ccccc1/N=[N+](\[O-])c1ccccc1CN1C(=O)CCC1=O`, the GI50 with HL-60 is > 100 µM (inactive); in the assay with HCT-116 it was > 100 µM (inactive); in the assay with CCRF-CEM, > 100 µM (inactive); in the assay with NCI-H460, > 100 µM (inactive); in the assay on OVCAR-5, > 100 µM (inactive); with HCT-15 it was above 100 µM. Moreover, the GI50 in the assay with KM12, with A549, in the assay with LOX IMVI, with SF-295, in the assay with KM-20L2 and in the assay with SK-MEL-2 was > 100 µM (inactive) throughout. Further, the GI50 in the assay on UO-31, in the assay on U-251, in the assay on SW-620, in the assay with SF-539 and in the assay with ACHN was > 100 µM (inactive) each time.

Consider `C=CCCC(O)c1cc(C)c(O)c(C)c1` (stereo not given), for which the GI50 with HL-60 is > 100 µM (inactive); in the assay with CCRF-CEM, > 100 µM (inactive); in the assay with NCI-H460 it was > 100 µM (inactive); in the assay on OVCAR-5, > 100 µM (inactive); with HCT-15 it was above 100 µM; with KM12, > 100 µM (inactive). Moreover, the GI50 with A549, in the assay on LOX IMVI, in the assay with SF-295, in the assay with KM-20L2, with SK-MEL-2 and in the assay with UO-31 was > 100 µM (inactive) in each case. Further, the GI50 with U-251, with SW-620, in the assay on SF-539 and in the assay with ACHN was > 100 µM (inactive) throughout.

Take `CSc1nc(C)cc(=O)n1C1OC(COC(C)=O)C(OC(C)=O)C(OC(C)=O)C1OC(C)=O` (stereo not given): the GI50 is > 100 µM (inactive) in the assay on HL-60; > 100 µM (inactive) in the assay on HCT-116; > 100 µM (inactive) in the assay on CCRF-CEM; > 100 µM (inactive) in the assay with NCI-H460; > 100 µM (inactive) with OVCAR-5; above 100 µM in the assay on HCT-15. The GI50 is > 100 µM (inactive) with KM12; > 100 µM (inactive) with A549; > 100 µM (inactive) in the assay on LOX IMVI; > 100 µM (inactive) with SF-295; > 100 µM (inactive) in the assay on KM-20L2; 53.3 µM (inactive) in the assay on SK-MEL-2. Moreover, the GI50 in the assay on UO-31, with U-251, in the assay with SW-620 and with ACHN was > 100 µM (inactive) throughout.

Turning to `O=C(Nc1cccc(-c2cn3ccccc3n2)c1)c1ccncc1`, the GI50 is 20.1 µM (inactive) in the assay with HL-60; 98.2 µM (inactive) in the assay on HOP-92; 33.1 µM (inactive) with HCT-116; 27.3 µM (inactive) in the assay on CCRF-CEM; 16.1 µM (inactive) in the assay on NCI-H460; 21.7 µM (inactive) in the assay on BT-549. The GI50 with OVCAR-5 is > 100 µM (inactive); in the assay with HCT-15 it was 24.2 µM; in the assay with KM12, 32.6 µM (inactive); with A549, 44.9 µM (inactive); in the assay on LOX IMVI, 38.3 µM (inactive); in the assay on SF-295, 40.7 µM (inactive). Also, the GI50 with SK-MEL-2 was 22.6 µM (inactive); in the assay on UO-31, 43.1 µM (inactive); with U-251 it was 48.2 µM (inactive); in the assay with SW-620, 64.9 µM (inactive); with SF-539, 50.6 µM (inactive); in the assay with MDA-N, 31.3 µM (inactive). Besides, the GI50 in the assay on ACHN is 41.1 µM (inactive).

For `O=C1CSC(c2cccs2)N1c1nc2cc3sc(N4C(=O)CSC4c4cccs4)nc3cc2s1` (stereo not given), the GI50 in the assay on HL-60 is > 50 µM (inactive); in the assay on HOP-92, > 50 µM (inactive); in the assay with HCT-116, 38.4 µM (inactive); in the assay on CCRF-CEM it was 25.2 µM (inactive); in the assay with NCI-H460, 3.04 µM (inactive); with BT-549, > 50 µM (inactive). For the same molecule, the GI50 is > 50 µM (inactive) in the assay on OVCAR-5; 33.4 µM in the assay with HCT-15; > 50 µM (inactive) in the assay with KM12; 4.23 µM (inactive) with A549; 29.5 µM (inactive) in the assay on LOX IMVI; > 50 µM (inactive) in the assay on SF-295. Moreover, the GI50 with SK-MEL-2 was > 50 µM (inactive); with UO-31, 30.9 µM (inactive); with U-251, 40.9 µM (inactive); in the assay with SW-620, 16.2 µM (inactive); in the assay with SF-539, 0.753 µM (active); with MDA-N it was > 50 µM (inactive). Further, the GI50 in the assay on ACHN was > 50 µM (inactive).

In the case of `Brc1ccc2c(-c3csc(-c4c[nH]c5ccc(Br)cc45)n3)c[nH]c2c1`, the GI50 in the assay with HL-60 was 5.22 µM (inactive); in the assay with HOP-92, 3.2 µM (inactive); in the assay on HCT-116 it was 3.64 µM (inactive); in the assay on CCRF-CEM it was 3.79 µM (inactive); in the assay on NCI-H460, 2.44 µM (inactive); in the assay with BT-549, 12.6 µM (inactive). The GI50 with OVCAR-5 was 2.44 µM (inactive); in the assay with HCT-15, 3.38 µM; in the assay on KM12 it was 2.42 µM (inactive); in the assay on A549, 4.2 µM (inactive); in the assay on LOX IMVI it was 1.94 µM (inactive); in the assay with SF-295 it was 3.19 µM (inactive). Further, the GI50 was 5.35 µM (inactive) with SK-MEL-2; 3.82 µM (inactive) in the assay with UO-31; 4.26 µM (inactive) in the assay on U-251; 3.65 µM (inactive) with SW-620; 3.87 µM (inactive) with SF-539; 5.15 µM (inactive) in the assay on MDA-N. Further, the GI50 with ACHN was 2.96 µM (inactive).

As for `CC(=O)Nc1ccc2c3c(cc(O)c2c1)N(C(=O)CCCCC(=O)N1CC(CCl)c2c1cc(O)c1cc(NC(C)=O)ccc21)CC3CCl` (stereo not given), the GI50 is < 0.01 µM (active) in the assay on HL-60; 0.207 µM (active) with HOP-92; 0.125 µM (active) with HCT-116; < 0.01 µM (active) in the assay on CCRF-CEM; < 0.01 µM (active) with NCI-H460; 0.183 µM (active) in the assay on BT-549. Besides, the GI50 in the assay on OVCAR-5 is 1.37 µM (inactive); in the assay with HCT-15, 12.9 µM; with KM12, 0.505 µM (active); in the assay with A549, 0.147 µM (active); in the assay with LOX IMVI, 0.0313 µM (active); with SF-295, 0.151 µM (active). For the same molecule, the GI50 is 0.144 µM (active) in the assay on SK-MEL-2; 3.53 µM (inactive) in the assay on UO-31; 0.0285 µM (active) in the assay with U-251; 0.518 µM (active) in the assay on SW-620; 0.0527 µM (active) in the assay with SF-539; 0.174 µM (active) in the assay with MDA-N. Also, in the assay on ACHN, the GI50 is 0.0308 µM (active).

Take `CN(C)CC/C=C1\c2ccccc2Sc2ccc(Cl)cc21`: the GI50 in the assay on HL-60 is 11.2 µM (inactive); in the assay with HOP-92, 4.75 µM (inactive); in the assay on HCT-116, 11.6 µM (inactive); in the assay on CCRF-CEM, 8.2 µM (inactive); with NCI-H460 it was 11.7 µM (inactive); in the assay on BT-549, 15.2 µM (inactive). The GI50 in the assay on OVCAR-5 was 13.9 µM (inactive); in the assay on HCT-15, 15.4 µM; with KM12, 21 µM (inactive); with A549, 14.6 µM (inactive); in the assay with LOX IMVI, 13.8 µM (inactive); in the assay on SF-295, 15.9 µM (inactive). In addition, the GI50 was 16.1 µM (inactive) in the assay with SK-MEL-2; 9.4 µM (inactive) in the assay with UO-31; 12.7 µM (inactive) in the assay on U-251; 16.3 µM (inactive) with SW-620; 19 µM (inactive) in the assay with SF-539; 12.7 µM (inactive) in the assay with MDA-N. Also, the GI50 with ACHN is 15.8 µM (inactive).

In the case of `O=C1C2Cc3ccccc3CN2C(=O)N1CCN1CCCC1` (stereo not given), the GI50 is > 100 µM (inactive) with HL-60; > 100 µM (inactive) in the assay with CCRF-CEM; > 100 µM (inactive) with NCI-H460; > 100 µM (inactive) in the assay with OVCAR-5; above 100 µM in the assay on HCT-15; > 100 µM (inactive) in the assay with KM12. The GI50 in the assay with A549, with LOX IMVI, with SF-295, in the assay with KM-20L2, in the assay on SK-MEL-2 and with UO-31 was > 100 µM (inactive) in each case. Moreover, the GI50 in the assay with U-251, in the assay on SW-620, in the assay with SF-539 and in the assay with ACHN was > 100 µM (inactive) in each case.

For the molecule `O=c1/c(=C/c2ccc3c(c2)OCO3)sc2nnc(-c3ccco3)n12`, the GI50 in the assay with HL-60, in the assay on HCT-116, in the assay with CCRF-CEM, with NCI-H460, with OVCAR-5 and with KM12 was > 100 µM (inactive) throughout. Further, the GI50 in the assay on A549 is > 100 µM (inactive); with LOX IMVI it was > 100 µM (inactive); with SF-295 it was 82 µM (inactive); in the assay on KM-20L2, > 100 µM (inactive); in the assay with SK-MEL-2 it was > 100 µM (inactive); with UO-31, > 100 µM (inactive). For the same molecule, the GI50 with U-251, with SW-620, with SF-539 and in the assay on ACHN was > 100 µM (inactive) in each case.

For the molecule `Cc1cc(N(CCOS(C)(=O)=O)CCOS(C)(=O)=O)ccc1/C=N/c1ccc(-c2csc(-c3ccccc3)n2)c(Cl)c1`, the GI50 in the assay on HL-60 was 2.45 µM (inactive); in the assay on HOP-92, 9.64 µM (inactive); with HCT-116, 12.8 µM (inactive); in the assay on CCRF-CEM, 1.1 µM (active); with NCI-H460, 0.0647 µM (active); with BT-549, 19.2 µM (inactive). Besides, the GI50 in the assay with OVCAR-5 was 17.3 µM (inactive); in the assay with HCT-15, 8.04 µM; with KM12 it was 11.2 µM (inactive); in the assay with A549, 1.95 µM (inactive); in the assay on LOX IMVI it was 6.73 µM (inactive); with SF-295, 2.36 µM (inactive). In addition, the GI50 in the assay on SK-MEL-2 is 21 µM (inactive); with UO-31, 9.75 µM (inactive); in the assay on U-251, 16.1 µM (inactive); with SW-620 it was 5.2 µM (inactive); in the assay with SF-539, 3.94 µM (inactive); in the assay with MDA-N, 3.78 µM (inactive). Further, the GI50 in the assay with ACHN was 0.575 µM (active).
